The numbers were not newly measured in US20070298069A1, “Medical devices for release of low solubility therapeutic agents” (Boston Scientific Scimed, Inc., priority 2006, published 2007), which cites them from elsewhere.

The series deals with most gram positive and gram negative aerobic and anaerobic bacteria, some yeast and fungi. As to conditions: in most organisms tested.

SMILES strings stand for the structures.

For `Oc1cc(Cl)ccc1Oc1ccc(Cl)cc1Cl` [triclosan], the MIC was less than 0.3 ppm.
